{"source": "patent US6407081B1", "about": "“Method for inhibiting cytokine production by cells” (Previsan AG, priority 1997, dated 2002)", "key": {"interferon-γ": {"test_system": "interferon-γ", "experiment": "Interferon-γ production by PHA-activated PBMC (Example 2)", "assay_type": "cell-based, human", "conditions": "for Interferon-γ content as a percentage of the control: PHA-activated PBMC, 72 h", "description": "Peripheral mononuclear blood cells (PMBC) from five healthy human donors are isolated in the conventional manner from 50 ml of their blood and then purified by density gradient centrifugation (Lymphoprep). The cells (5.10^6 cells/ml) are activated by 0.3 μg/ml of phytohaemagglutinin (PHA) and cultured for 72 hours at 37° C. in the presence of various concentrations of ADA (20, 10, 5, 1, 0.2 and 0.04 μg/ml). The culture medium consists of RPMI 1640 complemented with 10% foetal calf serum and glutamine and contains mercaptoethanol. The ADA solutions are prepared in dimethyl sulfoxide (DMSO), the working concentration of DMSO during the experiments being 0.1%. Said experiments are performed on 96 well plates (200 μl/well) and, once the plates have been centrifuged at 1500 revolutions per minute for 10 minutes, the supernatants are harvested and the IL-5 content thereof analysed by an ELISA immunoenzymatic assay.\nStarting from the same cell cultures as those used in Example 1, the presence of interferon-γ was investigated after treatment with the stated concentrations of ADA."}, "IL-5": {"test_system": "IL-5", "experiment": "IL-5 production by purified CD4 T lymphocytes stimulated by PMA + anti-CD28 (Example 4)", "assay_type": "cell-based, human", "conditions": "for IL-5 in % relative to control: purified CD4 T lymphocytes, PMA + anti-CD28, 1 donor", "description": "(§1) Purified CD4 T lymphocytes (90% purity) stimulated by PMA (phorbol myristate acetate)+anti-CD28 antibodies from healthy donors are treated with various concentrations of ADA.\n(§2) In Examples 3 and 4, the results are stated as a percentage taking the medium without ADA as 100%. The concentrations corresponding to 100% are respectively 90,000 pg/ml for IL-2, 1100 pg/ml for IL-5, 1900 pg/ml for IFN-γ and 2870 pg/ml for TNF-α. The results are the mean of independent ELISA assays."}, "TNF-α": {"test_system": "TNF-α", "experiment": "TNF-α production by purified CD4 T lymphocytes stimulated by PMA + anti-CD28 (Example 4)", "assay_type": "cell-based, human", "conditions": "for TNF-α in % relative to control: purified CD4 T lymphocytes, PMA + anti-CD28, 5 donors", "description": "as §1, §2"}, "IL-2": {"test_system": "IL-2", "experiment": "In vivo serum IL-2 release after anti-CD3 145-2C11 mAb (Example 5)", "set-up": "species or system BALB/C mice", "conditions": "ADA 100 mg/kg single injection one day before 145-2C11 mAb; sera at 2, 4, 8, 24 h; FIG. 1", "description": "A single intraparenteral injection of azodicarbon-amide (ADA) at a dose of 100 mg/kg bodyweight or corresponding carrier is made into BALB/C mice (Harlan, Zeist, Netherlands) one day before intraparenteral inoculation of 25 μg of hamster 145-2C11 mAb, an anti-mouse CD3 mAb which brings about massive in vivo activation of polyclonal T cells, resulting in systemic cytokine release. Sera are collected 2, 4, 8 and 24 hours after the anti-CD3 treatment and the cytokine (IL-2, IL-4) levels are determined by an ELISA test (Genzyme).\nFIGS. 1 and 2 are graphs showing, on the y-axis, the quantities of IL-2 and IL-4 in the serum as a mean of 5 test animals. […] The empty bars show the results obtained with the carrier and the shaded bars show those obtained with prior ADA treatment."}, "IFN-γ": {"test_system": "IFN-γ", "experiment": "IFN-γ production by splenocytes of ovalbumin-sensitised rats treated orally (Example 8)", "assay_type": "in vivo, Brown-Norway rats", "conditions": "ADA orally 500 and 1000 mg/kg twice daily, FIG. 4", "description": "Brown-Norway rats are actively sensitised with 5% ovalbumin in 0.9% NaCl. 24 hours later, bronchial reactivity to metacholine is measured on the anaesthetised rats. Immediately measurement of bronchial reactivity is complete, splenocytes are taken from these rats and cultured to determine IFN-γ production by these cells.\nADA is administered 24 hours before the beginning of the ovalbumin sensitisation phase and daily throughout the duration of the test, except for the days of the measurements. The ADA is administered orally in suspension in 1% methylcellulose at a twice daily dosage of 500 mg/kg and 1000 mg/kg bodyweight.\nThe quantities of IFN-γ are plotted on the y-axis in pg/mg of protein. On the x-axis, the empty bars A to F correspond to the following experiments: […]"}}, "data": [{"smiles": "NC(=O)N=NC(N)=O", "note": "[ADA, azodicarbon-amide]", "values": [{"measurement": "Interferon-γ content as a percentage of the control", "setting": "interferon-γ; ADA 0.04 μg/ml, Donor 1", "value": "62 % of control"}, {"measurement": "Interferon-γ content as a percentage of the control", "setting": "interferon-γ; ADA 0.04 μg/ml, Donor 2", "value": "53 % of control"}, {"measurement": "Interferon-γ content as a percentage of the control", "setting": "interferon-γ; ADA 0.04 μg/ml, Donor 3", "value": "99 % of control"}, {"measurement": "Interferon-γ content as a percentage of the control", "setting": "interferon-γ; ADA 0.04 μg/ml, Donor 4", "value": "82 % of control"}, {"measurement": "Interferon-γ content as a percentage of the control", "setting": "interferon-γ; ADA 0.04 μg/ml, Donor 5", "value": "38 % of control"}, {"measurement": "Interferon-γ content as a percentage of the control", "setting": "interferon-γ; ADA 0.04 μg/ml, Mean of donors", "value": "67 % of control"}, {"measurement": "Interferon-γ content as a percentage of the control", "setting": "interferon-γ; ADA 0.2 μg/ml, Donor 1", "value": "112 % of control"}, {"measurement": "Interferon-γ content as a percentage of the control", "setting": "interferon-γ; ADA 0.2 μg/ml, Donor 2", "value": "111 % of control"}, {"measurement": "Interferon-γ content as a percentage of the control", "setting": "interferon-γ; ADA 0.2 μg/ml, Donor 3", "value": "70 % of control"}, {"measurement": "Interferon-γ content as a percentage of the control", "setting": "interferon-γ; ADA 0.2 μg/ml, Mean of donors (donors 4, 5 not given)", "value": "98 % of control"}, {"measurement": "Interferon-γ content as a percentage of the control", "setting": "interferon-γ; ADA 1 μg/ml, Donor 1", "value": "87 % of control"}, {"measurement": "Interferon-γ content as a percentage of the control", "setting": "interferon-γ; ADA 1 μg/ml, Donor 2", "value": "98 % of control"}, {"measurement": "Interferon-γ content as a percentage of the control", "setting": "interferon-γ; ADA 1 μg/ml, Donor 3", "value": "49 % of control"}, {"measurement": "Interferon-γ content as a percentage of the control", "setting": "interferon-γ; ADA 1 μg/ml, Mean of donors (donors 4, 5 not given)", "value": "78 % of control"}, {"measurement": "Interferon-γ content as a percentage of the control", "setting": "interferon-γ; ADA 5 μg/ml, Donor 1", "value": "68 % of control"}, {"measurement": "Interferon-γ content as a percentage of the control", "setting": "interferon-γ; ADA 5 μg/ml, Donor 2", "value": "128 % of control"}, {"measurement": "Interferon-γ content as a percentage of the control", "setting": "interferon-γ; ADA 5 μg/ml, Donor 3", "value": "62 % of control"}, {"measurement": "Interferon-γ content as a percentage of the control", "setting": "interferon-γ; ADA 5 μg/ml, Donor 4", "value": "57 % of control"}, {"measurement": "Interferon-γ content as a percentage of the control", "setting": "interferon-γ; ADA 5 μg/ml, Donor 5", "value": "25 % of control"}, {"measurement": "Interferon-γ content as a percentage of the control", "setting": "interferon-γ; ADA 5 μg/ml, Mean of donors", "value": "68 % of control"}, {"measurement": "Interferon-γ content as a percentage of the control", "setting": "interferon-γ; ADA 10 μg/ml, Donor 1", "value": "23 % of control"}, {"measurement": "Interferon-γ content as a percentage of the control", "setting": "interferon-γ; ADA 10 μg/ml, Donor 2", "value": "169 % of control"}, {"measurement": "Interferon-γ content as a percentage of the control", "setting": "interferon-γ; ADA 10 μg/ml, Donor 3", "value": "43 % of control"}, {"measurement": "Interferon-γ content as a percentage of the control", "setting": "interferon-γ; ADA 10 μg/ml, Mean of donors (donors 4, 5 not given)", "value": "78 % of control"}, {"measurement": "Interferon-γ content as a percentage of the control", "setting": "interferon-γ; ADA 20 μg/ml, Donor 1", "value": "21 % of control"}, {"measurement": "Interferon-γ content as a percentage of the control", "setting": "interferon-γ; ADA 20 μg/ml, Donor 2", "value": "86 % of control"}, {"measurement": "Interferon-γ content as a percentage of the control", "setting": "interferon-γ; ADA 20 μg/ml, Donor 3", "value": "40 % of control"}, {"measurement": "Interferon-γ content as a percentage of the control", "setting": "interferon-γ; ADA 20 μg/ml, Donor 4", "value": "25 % of control"}, {"measurement": "Interferon-γ content as a percentage of the control", "setting": "interferon-γ; ADA 20 μg/ml, Donor 5", "value": "16 % of control"}, {"measurement": "Interferon-γ content as a percentage of the control", "setting": "interferon-γ; ADA 20 μg/ml, Mean of donors", "value": "38 % of control"}, {"measurement": "inhibition of interferon-γ production, number of donors", "setting": "interferon-γ; PBMC of 5 donors, ADA 0.04-20 μg/ml", "value": "inhibition is observed in 4 out of 5 donors"}, {"measurement": "production of IL-5", "setting": "IL-5; 20 μg/ml of ADA, donors of Examples 3 and 4", "value": "inhibited"}, {"measurement": "IL-5 in % relative to control", "setting": "IL-5; ADA 1 μg/ml", "value": "69 % relative to control"}, {"measurement": "IL-5 in % relative to control", "setting": "IL-5; ADA 5 μg/ml", "value": "45 % relative to control"}, {"measurement": "IL-5 in % relative to control", "setting": "IL-5; ADA 10 μg/ml", "value": "43 % relative to control"}, {"measurement": "IL-5 in % relative to control", "setting": "IL-5; ADA 20 μg/ml", "value": "38 % relative to control"}, {"measurement": "production of TNF-α", "setting": "TNF-α; 20 μg/ml of ADA, donors of Example 4", "value": "inhibited"}, {"measurement": "TNF-α in % relative to control", "setting": "TNF-α; ADA 1 μg/ml", "value": "90 % relative to control"}, {"measurement": "TNF-α in % relative to control", "setting": "TNF-α; ADA 5 μg/ml", "value": "48 % relative to control"}, {"measurement": "TNF-α in % relative to control", "setting": "TNF-α; ADA 10 μg/ml", "value": "32 % relative to control"}, {"measurement": "TNF-α in % relative to control", "setting": "TNF-α; ADA 20 μg/ml", "value": "14 % relative to control"}, {"measurement": "release of IL-2 into serum", "setting": "IL-2", "value": "significant reduction"}, {"measurement": "production of INF-γ by splenocytes", "setting": "IFN-γ", "value": "inhibitory effect"}]}]}
